Values after ≈ are worked out from the molar mass of the structure shown. Bridge positions count the residues as written; N and C are the ends. Square brackets hold non-standard residues; d marks the D form. Peptide text beside a SMILES is read from it. * marks the point of attachment. Heptanoyl(6-Me) = CC(C)CCCCC(=O)*; Nonanoyl = CCCCCCCCC(=O)*; X1 = CC[C@H](C)CCCCC(=O)*; dDab = NCC[C@@H](N)C(=O)O; Heptanoyl = CCCCCCC(=O)*; Octanoyl = CCCCCCCC(=O)*; Orn = NCCC[C@H](N)C(=O)O; dDap = NC[C@@H](N)C(=O)O; Dab = NCC[C@H](N)C(=O)O; Dap = NC[C@H](N)C(=O)O
How the values were obtained:
Assay type in all cases: cell-based
[1] = system: Acinetobacter baumannii ABA19-1; details: ABA19-1
How it was run: (§1)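 Broth microdilution per CLSI in Mueller-Hinton broth. Compounds were tested at final concentrations of 64 to 0.03 mg/L (two-fold steps) against an inoculum of (2-4) × 10^5 CFU/mL, with incubation at 35-37°C for 16-20 h to give the MIC.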

[2] = system: Acinetobacter baumannii NCTC 13304 (OXA-27); details: NCTC 13304
How it was run: as §1

[3] = system: Escherichia coli ATCC BAA-2340 (KPC); details: ATCC BAA-2340
How it was run: as §1

[4] = system: Escherichia coli ATCC BAA-2523; details: ATCC BAA-2523
How it was run: as §1

[5] = system: Klebsiella pneumoniae ATCC BAA-1705 (KPC); details: ATCC BAA-1705
How it was run: as §1

[6] = system: Klebsiella pneumoniae KPN+19-15; details: KPN+19-15
How it was run: as §1

[7] = system: Pseudomonas aeruginosa ATCC 27853; details: ATCC 27853
How it was run: as §1

[8] = system: Pseudomonas aeruginosa PAE19-3; details: PAE19-3
How it was run: as §1

[9] = Nephrotoxicity assay: in vitro cytotoxicity of HK-2 cells by CCK-8 assay; details: human, HK-2 cells (human renal), 72 h incubation with drug-containing medium
How it was run: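 HK-2 human renal cells in RPMI-1640 with 10% FBS were exposed to compounds at final 12.5–500 µg/mL for 72 h, then CCK-8 for 3 h and OD450 read. Viability was normalised to drug-free wells; IC50 came from logarithmic regression over three repeats, with polymyxin B as positive drug.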

## CC[C@H](C)CCCCC(=O)N[C@@H](CCN)C(=O)N[C@H](C(=O)N[C@H](CN)C(=O)N[C@H]1CCNC(=O)[C@H]([C@@H](C)O)NC(=O)[C@H](CCN)NC(=O)[C@H](CCN)NC(=O)[C@H]([C@@H](C)O)NC(=O)[C@@H](Cc2ccccc2)NC(=O)[C@H](CCN)NC1=O)[C@@H](C)O [Compound 1, (S)-6-methyloctanoyl-Dab-Thr-D-Dap-ring(4-10)[Dab-Dab-D-Phe-Thr-Dab-Dab-Thr]] (X1-[Dab]T[dDap][Dab][Dab][dF]T[Dab][Dab]T; lactam 4-C)
[1]
  MIC: ≤0.03 µg/mL
[2]
  MIC: ≤0.03 µg/mL
[3]
  MIC: ≤0.03 µg/mL
[4]
  MIC: ≤0.03 µg/mL
[5]
  MIC: ≤0.03 µg/mL
[6]
  MIC: ≤0.03 µg/mL
[7]
  MIC: 0.03 µg/mL (≈ 0.0255 µM)
[8]
  MIC: 0.125 µg/mL (≈ 0.106 µM)
[9]
  IC50 at 72 h: > 500 µg/mL

## CCCCCCCCC(=O)N[C@@H](CCN)C(=O)N[C@H](C(=O)N[C@H](CO)C(=O)N[C@H]1CCNC(=O)[C@H]([C@@H](C)O)NC(=O)[C@H](CCN)NC(=O)[C@H](CCN)NC(=O)[C@H]([C@@H](C)O)NC(=O)[C@@H](Cc2ccccc2)NC(=O)[C@H](CCCN)NC1=O)[C@@H](C)O [Compound 70, Nonanoyl-Dab-Thr-D-Ser-ring(4-10)[Dab-Orn-D-Phe-Thr-Dab-Dab-Thr]] (Nonanoyl-[Dab]T[dS][Dab][Orn][dF]T[Dab][Dab]T; lactam 4-C)
[1]
  MIC: 0.25 µg/mL (≈ 0.21 µM)
[2]
  MIC: 0.25 µg/mL (≈ 0.21 µM)
[3]
  MIC: 0.5 µg/mL (≈ 0.419 µM)
[4]
  MIC: 0.5 µg/mL (≈ 0.419 µM)
[5]
  MIC: 0.25 µg/mL (≈ 0.21 µM)
[6]
  MIC: 0.5 µg/mL (≈ 0.419 µM)
[7]
  MIC: 64 µg/mL (≈ 53.7 µM)
[8]
  MIC: 8 µg/mL (≈ 6.71 µM)
[9]
  IC50 at 72 h: 384 ± 29.5 µg/mL (≈ 322 µM)

## CCCCCCC(=O)N[C@@H](CCN)C(=O)N[C@H](C(=O)N[C@@H](CN)C(=O)N[C@H]1CCNC(=O)[C@H]([C@@H](C)O)NC(=O)[C@H](CCN)NC(=O)[C@H](CCN)NC(=O)[C@H](CC(C)C)NC(=O)[C@@H](Cc2ccccc2)NC(=O)[C@H](CCN)NC1=O)[C@@H](C)O [Compound 39, Heptanoyl-Dab-Thr-Dap-ring(4-10)[Dab-Dab-D-Phe-Leu-Dab-Dab-Thr]] (Heptanoyl-[Dab]T[Dap][Dab][Dab][dF]L[Dab][Dab]T; lactam 4-C)
[1]
  MIC: 0.03 µg/mL (≈ 0.0258 µM)
[2]
  MIC: 0.03 µg/mL (≈ 0.0258 µM)
[3]
  MIC: 0.03 µg/mL (≈ 0.0258 µM)
[4]
  MIC: 0.03 µg/mL (≈ 0.0258 µM)
[5]
  MIC: 0.03 µg/mL (≈ 0.0258 µM)
[6]
  MIC: 0.03 µg/mL (≈ 0.0258 µM)
[7]
  MIC: 0.06 µg/mL (≈ 0.0517 µM)
[8]
  MIC: 0.5 µg/mL (≈ 0.431 µM)
[9]
  IC50 at 72 h: 357 ± 8.1 µg/mL (≈ 307 µM)

## CCCCCCC(=O)N[C@@H](CN)C(=O)N[C@H](C(=O)N[C@H](CCN)C(=O)N[C@H]1CCNC(=O)[C@H]([C@@H](C)O)NC(=O)[C@H](CCN)NC(=O)[C@H](CCN)NC(=O)[C@H](CC(C)C)NC(=O)[C@@H](CC(C)C)NC(=O)[C@H](CCN)NC1=O)[C@@H](C)O [Compound 99, Heptanoyl-Dap-Thr-D-Dab-ring(4-10)[Dab-Dab-D-Leu-Leu-Dab-Dab-Thr]] (Heptanoyl-[Dap]T[dDab][Dab][Dab][dL]L[Dab][Dab]T; lactam 4-C)
[1]
  MIC: 0.03 µg/mL (≈ 0.0266 µM)
[2]
  MIC: 0.03 µg/mL (≈ 0.0266 µM)
[3]
  MIC: 0.06 µg/mL (≈ 0.0532 µM)
[4]
  MIC: 0.06 µg/mL (≈ 0.0532 µM)
[5]
  MIC: 0.03 µg/mL (≈ 0.0266 µM)
[6]
  MIC: 0.03 µg/mL (≈ 0.0266 µM)
[7]
  MIC: 1 µg/mL (≈ 0.887 µM)
[8]
  MIC: 1 µg/mL (≈ 0.887 µM)
[9]
  IC50 at 72 h: 317 ± 18.1 µg/mL (≈ 281 µM)

## CC(C)CCCCC(=O)N[C@@H](CN)C(=O)N[C@H](C(=O)N[C@H](CCN)C(=O)N[C@H]1CCNC(=O)[C@H]([C@@H](C)O)NC(=O)[C@H](CCN)NC(=O)[C@H](CCN)NC(=O)[C@H](CC(C)C)NC(=O)[C@@H](Cc2ccccc2)NC(=O)[C@H](CCN)NC1=O)[C@@H](C)O [Compound 92, 6-methylheptanoyl-Dap-Thr-D-Dab-ring(4-10)[Dab-Dab-D-Phe-Leu-Dab-Dab-Thr]] ({Heptanoyl(6-Me)}-[Dap]T[dDab][Dab][Dab][dF]L[Dab][Dab]T; lactam 4-C)
[1]
  MIC: 0.03 µg/mL (≈ 0.0255 µM)
[2]
  MIC: 0.03 µg/mL (≈ 0.0255 µM)
[3]
  MIC: 0.03 µg/mL (≈ 0.0255 µM)
[4]
  MIC: 0.03 µg/mL (≈ 0.0255 µM)
[5]
  MIC: 0.03 µg/mL (≈ 0.0255 µM)
[6]
  MIC: 0.03 µg/mL (≈ 0.0255 µM)
[7]
  MIC: 0.5 µg/mL (≈ 0.425 µM)
[8]
  MIC: 0.5 µg/mL (≈ 0.425 µM)
[9]
  IC50 at 72 h: 228 ± 18.7 µg/mL (≈ 194 µM)

## CC(C)CCCCC(=O)N[C@@H](CCN)C(=O)N[C@H](C(=O)N[C@@H](CN)C(=O)N[C@H]1CCNC(=O)[C@H]([C@@H](C)O)NC(=O)[C@H](CCN)NC(=O)[C@H](CCN)NC(=O)[C@H](CC(C)C)NC(=O)[C@@H](Cc2ccccc2)NC(=O)[C@H](CCN)NC1=O)[C@@H](C)O [Compound 37, 6-methylheptanoyl-Dab-Thr-Dap-ring(4-10)[Dab-Dab-D-Phe-Leu-Dab-Dab-Thr]] ({Heptanoyl(6-Me)}-[Dab]T[Dap][Dab][Dab][dF]L[Dab][Dab]T; lactam 4-C)
[1]
  MIC: 0.03 µg/mL (≈ 0.0255 µM)
[2]
  MIC: 0.03 µg/mL (≈ 0.0255 µM)
[3]
  MIC: 0.03 µg/mL (≈ 0.0255 µM)
[4]
  MIC: 0.03 µg/mL (≈ 0.0255 µM)
[5]
  MIC: 0.03 µg/mL (≈ 0.0255 µM)
[6]
  MIC: 0.03 µg/mL (≈ 0.0255 µM)
[7]
  MIC: 0.03 µg/mL (≈ 0.0255 µM)
[8]
  MIC: 0.25 µg/mL (≈ 0.213 µM)
[9]
  IC50 at 72 h: 318 ± 10.2 µg/mL (≈ 270 µM)

## CCCCCCCC(=O)N[C@@H](CN)C(=O)N[C@H](C(=O)N[C@H](CCN)C(=O)N[C@H]1CCNC(=O)[C@H]([C@@H](C)O)NC(=O)[C@H](CCN)NC(=O)[C@H](CCN)NC(=O)[C@H](CC(C)C)NC(=O)[C@@H](CC(C)C)NC(=O)[C@H](CCN)NC1=O)[C@@H](C)O [Compound 98, Octanoyl-Dap-Thr-D-Dab-ring(4-10)[Dab-Dab-D-Leu-Leu-Dab-Dab-Thr]] (Octanoyl-[Dap]T[dDab][Dab][Dab][dL]L[Dab][Dab]T; lactam 4-C)
[1]
  MIC: 0.03 µg/mL (≈ 0.0263 µM)
[2]
  MIC: 0.03 µg/mL (≈ 0.0263 µM)
[3]
  MIC: 0.03 µg/mL (≈ 0.0263 µM)
[4]
  MIC: 0.03 µg/mL (≈ 0.0263 µM)
[5]
  MIC: 0.03 µg/mL (≈ 0.0263 µM)
[6]
  MIC: 0.03 µg/mL (≈ 0.0263 µM)
[7]
  MIC: 0.5 µg/mL (≈ 0.438 µM)
[8]
  MIC: 0.5 µg/mL (≈ 0.438 µM)
[9]
  IC50 at 72 h: 238 ± 9.9 µg/mL (≈ 209 µM)

## CC(C)CCCCC(=O)N[C@@H](CCN)C(=O)N[C@H](C(=O)N[C@@H](CCN)C(=O)N[C@H]1CCNC(=O)[C@H]([C@@H](C)O)NC(=O)[C@H](CCN)NC(=O)[C@H](CCN)NC(=O)[C@H]([C@@H](C)O)NC(=O)[C@@H](Cc2ccccc2)NC(=O)[C@H](CCN)NC1=O)[C@@H](C)O [Compound 17, 6-methylheptanoyl-Dab-Thr-Dab-ring(4-10)[Dab-Dab-D-Phe-Thr-Dab-Dab-Thr]] ({Heptanoyl(6-Me)}-[Dab]T[Dab][Dab][Dab][dF]T[Dab][Dab]T; lactam 4-C)
[1]
  MIC: 0.5 µg/mL (≈ 0.425 µM)
[2]
  MIC: 0.25 µg/mL (≈ 0.212 µM)
[3]
  MIC: ≤0.03 µg/mL
[4]
  MIC: 0.06 µg/mL (≈ 0.051 µM)
[5]
  MIC: 0.5 µg/mL (≈ 0.425 µM)
[6]
  MIC: ≤0.03 µg/mL
[7]
  MIC: 0.5 µg/mL (≈ 0.425 µM)
[8]
  MIC: 0.5 µg/mL (≈ 0.425 µM)
[9]
  IC50 at 72 h: > 500 µg/mL

## CC(C)CCCCC(=O)N[C@@H](CCN)C(=O)N[C@H](C(=O)N[C@H](CO)C(=O)N[C@H]1CCNC(=O)[C@H]([C@@H](C)O)NC(=O)[C@H](CCN)NC(=O)[C@H](CCN)NC(=O)[C@H]([C@@H](C)O)NC(=O)[C@@H](Cc2ccccc2)NC(=O)[C@H](CN)NC1=O)[C@@H](C)O [Compound 62, 6-methylheptanoyl-Dab-Thr-D-Ser-ring(4-10)[Dab-Dap-D-Phe-Thr-Dab-Dab-Thr]] ({Heptanoyl(6-Me)}-[Dab]T[dS][Dab][Dap][dF]T[Dab][Dab]T; lactam 4-C)
[1]
  MIC: 0.25 µg/mL (≈ 0.217 µM)
[2]
  MIC: 0.25 µg/mL (≈ 0.217 µM)
[3]
  MIC: 0.06 µg/mL (≈ 0.0522 µM)
[4]
  MIC: 0.06 µg/mL (≈ 0.0522 µM)
[5]
  MIC: 0.25 µg/mL (≈ 0.217 µM)
[6]
  MIC: 0.5 µg/mL (≈ 0.435 µM)
[7]
  MIC: 64 µg/mL (≈ 55.6 µM)
[8]
  MIC: 4 µg/mL (≈ 3.48 µM)
[9]
  IC50 at 72 h: > 500 µg/mL

From patent EP4725957A1, “GROUP OF CYCLIC ALKALINE LIPOPEPTIDE COMPOUNDS, AND PREPARATION METHOD THEREFOR AND USE THEREOF” (Institute of Medicinal Biotechnology, Chinese Academy of …, priority 2023, dated 2024)
